From patent US20260125649A1, “MEDIUM COMPOSITION AND METHOD FOR CULTURING MESENCHYMAL STEM CELLS” (ACADEMIA SINICA, priority 2018, published 2026)

Key:
Assay type in all cases: cell-based, human
[1] = tested on: TACE (Ser435), PS2 (Ser327), ERK1/2; test: Western blotting of phosphorylation of TACE, Presenilin 2 and ERK1/2; conditions: addition of EGFR inhibitor
Protocol: FIG. 9. EpEX induces the phosphorylation and activity of TACE and γ-secretase. MSCs were stimulated by EpEX for the indicated times, and the activity of TACE and γ-secretase were detected. MSCs were stimulated by EpEX (3 μg/mL) for the indicated times. Western blot analysis was performed to detect the phosphorylation of TACE and Presenilin 2.
FIG. 10. EpEX and EGF induce the phosphorylation of TACE, ERK1/2 and PS2. MSCs were treated with either EGF, EpEX, or co-treated with EGF and EpEX for 5 min. The phosphorylation of ERK1/2 was examined by Western blotting with specific antibodies. […] The phosphorylation of ERK1/2, TACE (Ser435), PS2 (Ser327) were examined by Western blotting with specific antibodies.
Western blotting was performed as previously described (Takahashi et al., 2003). Cells were lysed in lysis buffer (150 mM NaCl, 50 mM Tris-HCl (pH 7.4), 1% Nonidet P-40), containing a protease inhibitor mix (Roche Applied Science). Nuclear fractions and cytoplasmic fractions were separated by the Nuclear/Cytosol Fractionation Kit according to the manufacturer's instructions (BioVision Inc., Milpitas, CA, USA). Protein samples were separated by SDS-PAGE under denaturing conditions, and transferred to a PVDF membrane (Millipore). […]

[2] = tested on: STAT3 (Tyr705); test: STAT3 phosphorylation by Western blotting
Protocol: After treatment, the protein levels of total STAT3 and phospho-STAT3 (Tyr705) were examined by Western blotting. […] Cell cycle progression was investigated by flow cytometry with PI staining. Fraction of cells in each phase (G1, S, G2/M) of the cell cycle was evaluated. Cells expressing STAT3 shRNA were treated with EpEX for 18 h, after which cell cycle progression was investigated by flow cytometry with PI staining. Fraction of cells in each phase (G1, S, G2/M) of the cell cycle was evaluated. […] The protein levels of cell cycle regulators (cyclin D1, cyclin D2, cyclin E1, CDK4 and CDK9) and pluripotency factors (Oct4, Sox2, c-Myc, Lin28) were examined by Western blotting. MSCs expressing STAT3 shRNA or shLuc were stimulated with EpEX. After treatment, the protein levels of cell cycle regulators (cyclin D1, cyclin D2, cyclin E1, CDK4 and CDK9) and pluripotency factors (Oct4, Sox2, c-Myc, and Lin 28) were examined by Western blotting. […] After treatment, the gene expression of pluripotency factors (Oct4, Sox2, c-Myc, Lin28 and EpCAM) was examined by qPCR.
FIG. 8. EpEX and EGF induce the phosphorylation of EGFR and STAT3. […] The phosphorylation of EGFR (Tyr845) and STAT3 (Tyr705) were examined by Western blotting with specific antibodies.
Western blotting was performed as previously described (Takahashi et al., 2003). […]

[3] = tested on: MSCs; test: Cell cycle progression by flow cytometry with PI staining; conditions: inhibitor pretreatment (AG1478 25 μM, 30 min; WP1066 5 μM), then EpEX 18 h
Protocol: Phospho-EGFR (Tyr845) was detected by Western blotting. […] After treatment, cell cycle progression was investigated by flow cytometry with PI staining. Fraction of cells in each phase (G1, S, G2/M) of the cell cycle was evaluated. Cells that expressed EGFR shRNA or shLuc were treated with EpEX for 18 h. After treatment, cell cycle progression was investigated by flow cytometry with PI staining. Fraction of cells in each phase (G1, S, G2/M) of the cell cycle was evaluated. […] The protein expression of cell cycle regulators (cyclin D1, cyclin D2, cyclin E1) and pluripotency factors (Oct4, Sox2, c-Myc, Lin28) was examined by Western blotting. MSCs expressing EGFR shRNA were stimulated by EpEX. After treatment, the protein expression of cell cycle regulators (cyclin D1, cyclin E1, CDK4 and CDK9) and pluripotency factors (Oct4, in Sox2, c-Myc, and Lin 28) was examined by Western blotting. […] After treatment, the gene expression of pluripotency factors (Oct4, Sox2, c-Myc, Lin28 and EpCAM) was examined by qPCR.
After treatment, the protein levels of total STAT3 and phospho-STAT3 (Tyr705) were examined by Western blotting. […] Cell cycle progression was investigated by flow cytometry with PI staining. Fraction of cells in each phase (G1, S, G2/M) of the cell cycle was evaluated. […] Fraction of cells in each phase (G1, S, G2/M) of the cell cycle was evaluated. […]

[4] = tested on: cyclin A2, cyclin D1, cyclin D2, cyclin D3, cyclin E1, CDK4, CDK9, Oct4, Sox2, c-Myc, Lin28; test: Western blotting of cell cycle regulators and pluripotency factors in MSCs; conditions: pretreatment, then EpEX
Protocol: The proliferation of MSCs was examined by measuring doubling time. MSCs were treated with EpEX (3 μg/mL) for 24 and 48 h. Cell number was counted and then doubling time was calculated. MSCs were treated with EpEX (3 μg/mL) for the indicated times. After treatment, protein expression of cell cycle regulators (cyclin D1, cyclin D2, cyclin D3, cyclin E1, CDK4 and CDK9) and pluripotency factors (Oct4, Sox2, c-Myc, and Lin28) was examined by Western blotting.
Phospho-EGFR (Tyr845) was detected by Western blotting. […] After treatment, cell cycle progression was investigated by flow cytometry with PI staining. Fraction of cells in each phase (G1, S, G2/M) of the cell cycle was evaluated. Cells that expressed EGFR shRNA or shLuc were treated with EpEX for 18 h. After treatment, cell cycle progression was investigated by flow cytometry with PI staining. Fraction of cells in each phase (G1, S, G2/M) of the cell cycle was evaluated. […]
After treatment, the protein levels of total STAT3 and phospho-STAT3 (Tyr705) were examined by Western blotting. […] Fraction of cells in each phase (G1, S, G2/M) of the cell cycle was evaluated. […] Fraction of cells in each phase (G1, S, G2/M) of the cell cycle was evaluated. […]
The expression of let-7 was detected by qPCR. […] The expression of let-7 was detected by qPCR. […]

## COc1cc2ncnc(Nc3cccc(Cl)c3)c2cc1OC [AG1478, reference compound]
[1]
  effect on EpEX-induced phosphorylation of TACE: can be abolished
  effect on EpEX-induced phosphorylation of presenilin-2: can be abolished
[2]; pretreatment with AG1478
  effect on activation of STAT3 by either EGF or EpEX: can attenuate
[3]
  effect on EpEX-induced cell cycle progression: attenuated
[4]
  effect on EpEX-induced protein expression of cell cycle regulators and pluripotency markers: abolished

## C[C@H](NC(=O)/C(C#N)=C/c1cccc(Br)n1)c1ccccc1 [WP1066, reference compound]
[3]
  effect on EpEX-induced cell cycle progression: attenuated
[4]
  effect on EpEX-induced protein expression of cell cycle regulators and pluripotency markers: blocked

## EGF: cognate ligand for EGFR
[2]; MSCs treated with the substance
  STAT3 phosphorylation: can induce
